Results from publication PMC5945669, “Reversible glycosidic switch for secure delivery of molecular nanocargos” (Nature Communications, 2018).
One block for each molecule: values may come before it.

Key:
[1] = Octanol-to-water partitioning; conditions: for partitioning behavior in octanol-water two-phase system: 1-octanol / citric acid buffer pH 5 (Fig. 2f), in words; for Log P (partition coefficient): 24 h, pH 5
Procedure: Samples from the supernatant were analyzed by HPLC to determine water solubility. The partitioning of compounds between octanol and water was determined by adding 2.5 nmol of each substance to an equal volume (200 µL) mixture of octanol and 0.25 M citric acid, pH 5 and shaking for 24 h to permit equilibration between the two phases. The tubes were then centrifuged at 20,000 × g for 30 min at 20 °C and 20 μL samples from each phase were analyzed by HPLC. The partition coefficient is defined by the following equation, where “C” is the concentration of compound in each phase. A partition coefficient equal to 0 means that the compound equally distributes between each phase.

[2] = Regeneration of parental drug 9AC within tumors (tumor vs blood); format: in vivo, NOD/SCID mice; conditions: female, NOD/SCID, mouse, intravenous, printed in picture of Fig. 9b, read-out: 9AC per gram of tissue, Tumor vs Blood
Procedure: Twelve to 16 week old female NOD/SCID immunodeficient mice were inoculated with 10^7 MDA-MB468 human breast cancer cells. When tumors reached ~100 mm^3, the mice were intravenously injected with 14.5 µmol kg^−1 (10 mg kg^−1) of liposomal 9AC-G^W (based on the drug concentration). Blood was collected in Na-heparinized hematocrit tubes from the tail vein and mice were then killed to harvest the tumor tissue. Blood samples (100 µL) were centrifuged at 2500 × g for 3 min and the plasma was collected for analysis. Tumor tissue was homogenized in 3 mL RIPA buffer (25 mM Tris-HCl pH 7.5, 150 mM NaCl, 0.1% SDS, 0.5% Na-deoxycholate, 1% Triton X-100) on a IKA Ultra-Turrax® TP 18/10 homogenizer. The amount of 9AC was determined in blood and tumor samples by HPLC and normalized to amounts per gram of tissue, according to the relationship 1 mL of whole blood = 1.06 g of weight.

[3] = test system: MDA-MB-468 human breast tumors; assay: In vivo anticancer activity, subcutaneous human breast cancer xenograft; parameters: species or system NOD/SCID mice; conditions: four weekly injections
Procedure: MDA-MB468 human breast cancer cells (10^7 cells in 100 µL PBS) were injected subcutaneously in twelve to sixteen-week old female NOD/SCID immunodeficient mice. When tumors reached sizes ranging from 75 to 100 mm^3, groups of seven mice were treated at weekly intervals for four times with intravenous injections of 9AC at 5.5 µmol kg^−1 (2 mg kg^−1), 9AC-G^W at 14.5 µmol kg^−1 (10 mg kg^−1), liposomal 9AC-G^W at 14.5 µmol kg^−1 (10 mg kg^−1), or doxorubicin liposomes (Doxisome, 1.8 µmol kg^−1 equivalent to 1 mg kg^−1 and 5.5 µmol kg^−1 equivalent to 3 mg kg^−1). Tumor volumes, body weights, and survival were monitored for more than 2 months after treatments started. […] The tumor volume was calculated according to the following formula:2 TumorVolume=Length×Depth×Height/2

[4] = parental hydrophobic drugs; cited from earlier work
[5] = Water solubility (saturation, HPLC); format: physicochemical; conditions: 24 h
[6] = Stability and conversion of the lipid-soluble switch in liposomal external and internal buffers; format: physicochemical; conditions: 75 °C
Procedure: Error bars, SD, n = 3. c Kinetics of the conversion of 9AC-G^W to lipid-soluble 9AC-G^L, d BQC-G^W to BQC-G^L and e 4MU-G^W to 4MU-G^L in acidic methanol at 62 °C. The HPLC chromatograms show samples at 0, 15, 30, and 60 min. RFU relative fluorescent units. f Partition coefficients (Log scale) between 50 mM citric acid buffer pH 5 and 1-octanol of the parental compounds compared to their respective -G^W and -G^L forms. Error bars: SD, n = 5. g Stability of 9AC-G^L in liposomal external buffer (50 mM citric acid, 250 mM sodium sulfate, pH 5) at 75 °C. Error bars: SD, n = 3. h Conversion of 9AC-G^L to 9AC-G^W in liposomal internal buffer (50 mM HEPES, 250 mM calcium acetate, pH 8.5) at 75 °C. Error bars: SD, n = 3.
Water-soluble 9AC-G^W was obtained by incubating 50 µg 9AC-G^L in 500 µL of liposomal internal buffer at pH 8.5. After 1 h at 65 °C the reaction was analyzed by HPLC to assess the reformation of 9AC-G^W. A 20 µL sample of 9AC-G^W was then transferred to 1 mL of reaction buffer (100 mM sodium acetate, 100 ng mL^−1 bovine serum albumin, pH 4.5) containing 1 µg of purified recombinant human beta-glucuronidase[56] for 1 h at 37 °C to cleave the cue-responsive trigger and generate 9AC. Drug regeneration was also examined in a biological system where 10^5 cells (MDA-MB468, HCC36, and HCC36 anti-PEG) were seeded per well in a 96 well-plate in triplicate and incubated overnight. […]

[7] = Pharmacokinetics in plasma after i.v. injection; parameters: species or system NOD/SCID female mice; conditions: female, NOD/SCID, mouse, in vivo, iv, 35 umol/kg
Procedure: 9AC-G^W was dissolved at 10.9 µmol mL^−1 (7.5 mg mL^−1) in 25 mM phosphate buffer pH 6.5 just before use. 9AC-G^W liposomes were concentrated by successive centrifugations at 5000, 10,000, and 20,000 × g for 30 min at 4 °C. After each centrifugation, the pellet was collected and resuspended in a smaller volume of buffer. The concentration of liposomal 9AC-G^W achieved through this method before injection was 5.1 µmol mL^−1 (3.5 mg mL^−1) based on 9AC-G^W. Each preparation (free 9AC-G^W and liposomal 9AC-G^W) was injected intravenously in the tail vein of 12–16 week old NOD/SCID female mice at 35 µmol kg^−1 (25 mg kg^−1) using three mice per group. Blood samples were collected at 5 min, 30 min, 60 min, 2 h, and 3 h for free 9AC-G^W, in addition to 6, 12, 26, 48, 148 h for 9AC-G^W liposomes with Na-heparinized hematocrit tubes from the tail vein. The plasma was separated from the red blood cells by centrifugation at 2500 × g for 3 min. […] The final results are expressed as 9AC-G^W plasma concentration in µmol L^−1 (µM). Biological half-lives were determined by an exponential two phase decay curve fit on GraphPad prism (GraphPad software, Inc.).

[8] = in animals; no reference given; cited from earlier work
[9] = PBS pH 7.4, after 2 hr; no reference given; cited from earlier work
[10] = parameters: method as in earlier work; conditions: rats 50, 250, 500 mg/kg i.p. daily; dogs 50 mg/kg i.v.; ref 6 of peer review file; cited from earlier work

partitioning behavior in octanol-water two-phase system [1]: partitioned in the aqueous phase
partitioning behavior in octanol-water two-phase system ([1]; listed as 4MU-G^L): slightly lipophilic behavior
Compound: Cc1cc(=O)oc2cc(O[C@@H]3O[C@H](C(=O)O)[C@@H](O)[C@H](O)[C@H]3O)ccc12 [4MU-G^W, 4-methylumbelliferyl-β-D-glucuronide, reference compound]

Compound: CC[C@@]1(O)C(=O)OCc2c1cc1n(c2=O)Cc2cc3c(N)cccc3nc2-1 [9AC, 9-aminocamptothecin]
Kp at 24 h ([2]; 24 h post-injection): > 30
Kp at 72 h ([2]; 72 h post-injection): > 12
effect on tumor growth compared with TBS ([3]; 5.5 µmol kg^−1 i.v.): minimal effect on tumor growth
water solubility [4]: < 50 µg/mL

Compound: CCC1(O)C(=O)OCc2c1cc1n(c2=O)Cc2cc3c(NC(=O)OCc4ccc(OC5OC(C(=O)O)C(O)C(O)C5O)cc4)cccc3nc2-1 [9AC-G^W, 9-aminocamptothecin-β-D-glucuronide]
water solubility, fold greater than the parental hydrophobic drug [5]: 680 fold
partitioning behavior in octanol-water two-phase system [1]: partitioned in the aqueous phase
partitioning behavior in octanol-water two-phase system ([1]; listed as 9AC-G^L): slightly lipophilic behavior
Log P (partition coefficient) [1]: ~ 1.1
stability in liposomal external buffer ([6]; pH 5 (50 mM citric acid, 250 mM sodium sulfate)): stable
conversion in liposomal internal buffer ([6]; pH 8.5 (50 mM HEPES, 250 mM calcium acetate)): rapidly converted to the highly water-soluble 9AC-G^W
half-life ([7]; initial half-life): 9.3 min
half-life ([7]; terminal half-life): 38.6 min
effect on tumor growth compared with TBS ([3]; 14.5 µmol kg^−1 i.v.): minimal effect on tumor growth

Compound: CCC1(O)C(=O)OCc2c1cc1n(c2=O)Cc2c-1nc1ccc(O)c3c1c2CCC3 (centres unmarked) [BQC, 5,6-dihydro-4H-benzo[de]quinoline-camptothecin, reference compound]
Water solubility, fold difference between Parental and -G^W Switch [5]: > 3700 ×

Compound: CCC1(O)C(=O)OCc2c1cc1n(c2=O)Cc2c-1nc1ccc(OCc3ccc(OC4OC(C(=O)O)C(O)C(O)C4O)c([N+](=O)[O-])c3)c3c1c2CCC3 [BQC-G^W, 5,6-dihydro-4H-benzo[de]quinoline-camptothecin-β-D-glucuronide]
water solubility, fold greater than the parental hydrophobic drug [5]: 3700 fold
partitioning behavior in octanol-water two-phase system [1]: partitioned in the aqueous phase
partitioning behavior in octanol-water two-phase system ([1]; listed as BQC-G^L): slightly lipophilic behavior
Log P (partition coefficient) [1]: ~ 1.3

Compound: OCc1ccccc1 [Benzyl alcohol, benzyl alcohol]
LD50 dose [8]: greater than 1 g per kg

Compound: CC[C@@]1(O)C(=O)OCc2c1cc1n(c2=O)Cc2cc3ccccc3nc2-1 [CPT]
activity remaining [9]: 10%

Compound: O=C[C@H](O)[C@@H](O)[C@H](O)[C@H](O)C(=O)O [D-glucuronic acid]
functional or morphological changes after one-month treatment [10]: induced neither f unctional nor
